According to the supplement of paper PMC9663587:

Legend:
Assay in all cases: area over the GR curve, 72 h; higher = more effect;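 note: Dye Drop or Deep Dye Drop imaging of viable cells in 384-well plates (Hoechst nuclei, LIVE/DEAD dye), nine half-log doses, GR normalized to DMSO controls and time-zero plates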
[1] = tested on: BT549
[2] = tested on: CAL120
[3] = tested on: EFM19
[4] = tested on: HCC1806
[5] = tested on: HS578T
[6] = tested on: HTERT_HME1
[7] = tested on: MCF7
[8] = tested on: MDAMB468
[9] = tested on: SUM1315
[10] = tested on: SUM190PT
[11] = tested on: T47D

Structure (SMILES) | area over the GR curve [1] [GR] | area over the GR curve [2] [GR] | area over the GR curve [3] [GR] | area over the GR curve [4] [GR] | area over the GR curve [5] [GR] | area over the GR curve [6] [GR] | area over the GR curve [7] [GR] | area over the GR curve [8] [GR] | area over the GR curve [9] [GR] | area over the GR curve [10] [GR] | area over the GR curve [11] [GR]
CN1CC[C@H](c2c(O)cc(O)c3c(=O)cc(-c4ccccc4Cl)oc23)[C@H](O)C1 [Flavopiridol] (max 1 µM) | 0.257 | 0.229 | 0.191 | 0.257 | 0.254 | 0.319 | 0.36 | 0.269 | 0.416 | 0.348 | 0.274
CC(C)n1nc(-c2ccc3oc(N)nc3c2)c2c(N)ncnc21 [INK128/MLN0128] (max 3.162 µM) | 0.534 | 0.602 | 0.682 | 0.39 | 0.623 | 0.401 | 0.726 | 0.502 | 0.647 | 0.791 | 0.689
CC(C)NC[C@@H](C(=O)N1CCN(c2ncnc3c2[C@H](C)C[C@H]3O)CC1)c1ccc(Cl)cc1 [Ipatasertib/GDC0068] (max 10 µM) | 0.173 | 0.13 | 0.185 | 0.0145 | 0.246 | 0.0249 | 0.26 | 0.223 | 0.124 | 0.0489 | 0.428
CN(C)C(=O)c1cc2cnc(Nc3ccc(N4CCNCC4)cn3)nc2n1C1CCCC1 [LEE011/Ribociclib] (max 10 µM) | 0.0102 | 0.265 | 0.315 | 0.141 | 0.351 | 0.365 | 0.442 | 0.0162 | 0.35 | 0.576 | 0.668
CCNC(=O)c1noc(-c2cc(C(C)C)c(O)cc2O)c1-c1ccc(CN2CCOCC2)cc1 [Luminespib/NVP-AUY922] (max 1 µM) | 0.612 | 0.693 | 0.35 | 0.539 | 0.67 | 0.633 | 0.513 | 0.648 | 0.606 | 0.728 | 0.51
CCOc1cc2ncc(C#N)c(Nc3ccc(OCc4ccccn4)c(Cl)c3)c2cc1NC(=O)/C=C/CN(C)C [Neratinib/HKI272] (max 3.162 µM) | 0.0779 | 0.224 | 0.0236 | 0.191 | 0.202 | 0.265 | 0.142 | 0.386 | 0.364 | 0.0652 | 0.274
O=C(c1cc(Cc2n[nH]c(=O)c3ccccc23)ccc1F)N1CCN(C(=O)C2CC2)CC1 [Olaparib/AZD2281] (max 10 µM) | 0.0657 | 0.143 | 0.0595 | 0.0953 | 0.0997 | 0.0258 | 0.0554 | 0.0573 | 0.245 | 0.0197 | 0.0229
CC(=O)O[C@H]1C(=O)[C@@]2(C)[C@H]([C@H](OC(=O)c3ccccc3)[C@]3(O)C[C@H](OC(=O)[C@H](O)[C@@H](NC(=O)c4ccccc4)c4ccccc4)C(C)=C1C3(C)C)[C@]1(OC(C)=O)CO[C@@H]1C[C@@H]2O [Paclitaxel] (max 1 µM) | 0.699 | 0.746 | 0.874 | 0.838 | 0.954 | 0.676 | 0.772 | 1.01 | 0.793 | 0.872 | 0.661
CS(=O)(=O)N1CCN(Cc2cc3nc(-c4cccc5[nH]ncc45)nc(N4CCOCC4)c3s2)CC1 [Pictilisib/GDC0941] (max 10 µM) | 0.208 | 0.255 | 0.439 | 0.118 | 0.311 | 0.134 | 0.506 | 0.205 | 0.371 | 0.143 | 0.477
O=C1NC(=NCc2cccs2)SC1=Cc1ccc2ncccc2c1 [R0-3306] (max 10 µM) | 0.12 | 0.0133 | 0.132 | 0.085 | 0.139 | 0.0677 | 0.0991 | 0.185 | 0.195 | 0.176 | 0.14
CNCc1ccc(-c2[nH]c3cc(F)cc4c3c2CCNC4=O)cc1 [Rucaparib] (max 10 µM) | 0.0437 | 0.125 | 0.0332 | 0.117 | 0.0974 | 0.121 | 0.0771 | 0.101 | 0.371 | 0.0862 | 0.0635
CC1(N)CCN(c2cnc(-c3cccc(Cl)c3Cl)c(N)n2)CC1 [SHP099] (max 10 µM) | 0.0349 | -0.0004 | -0.0009 | -0.0155 | 0.142 | 0.0778 | 0.0308 | 0.134 | 0.121 | 0.0478 | 0.0099
CN1CCN(CCOc2cc(OC3CCOCC3)c3c(Nc4c(Cl)ccc5c4OCO5)ncnc3c2)CC1 [Saracatinib/AZD0530] (max 10 µM) | 0.0348 | 0.173 | 0.149 | 0.233 | 0.159 | -0.0453 | 0.322 | 0.139 | 0.244 | 0.181 | 0.171
Cc1cc(C(C)Nc2ccccc2)c2nc(N3CCOCC3)cc(=O)n2c1 (centres undefined) [TGX221] (max 10 µM) | 0.0568 | -0.0168 | 0.0431 | -0.02 | 0.0668 | -0.0608 | -0.0083 | 0.103 | 0.136 | -0.0619 | -0.0193
CN(C)C/C=C/C(=O)Nc1ccc(C(=O)Nc2cccc(Nc3ncc(Cl)c(-c4c[nH]c5ccccc45)n3)c2)cc1 [THZ1] (max 1 µM) | 0.381 | 0.337 | 0.159 | 0.367 | 0.518 | 0.76 | 0.514 | 0.48 | 0.229 | 0.767 | 0.446
CN(C)C/C=C/C(=O)Nc1ccc(C(=O)N2CCC[C@@H](Nc3ncc(Cl)c(-c4c[nH]c5ccccc45)n3)C2)cc1 [THZ531] (max 1 µM) | 0.174 | 0.21 | 0.167 | 0.134 | 0.377 | 0.182 | 0.344 | 0.404 | 0.148 | 0.501 | 0.229
CN(C)C/C=C/C(=O)Nc1ccc(C(=O)Nc2cccc(Nc3cc(-c4c[nH]c5ccccc45)ncn3)c2)cc1 [THZ-P1-2] (max 10 µM) | 0.124 | 0.124 | 0.131 | 0.199 | -0.017 | 0.107 | 0.292 | 0.344 | 0.0029 | 0.478 | 0.353
Cc1nc(-c2cn3c(n2)-c2ccc(-c4cnn(C(C)(C)C(N)=O)c4)cc2OCC3)n(C(C)C)n1 [Taselisib/GDC0032] (max 10 µM) | 0.223 | 0.235 | 0.944 | 0.258 | 0.374 | 0.439 | 0.768 | 0.217 | 0.397 | 0.298 | 0.899
O=C1NC(=O)[C@@H](c2cn3c4c(cccc24)CCC3)[C@@H]1c1c[nH]c2ccccc12 [Tivantinib/ARQ197] (max 10 µM) | 0.344 | 0.465 | 0.361 | 0.446 | 0.437 | 0.648 | 0.453 | 0.49 | 0.475 | 0.637 | 0.365
Nc1ccc(-c2ccc3ncc4ccc(=O)n(-c5cccc(C(F)(F)F)c5)c4c3c2)cn1 [Torin2] (max 1 µM) | 0.49 | 0.487 | 0.501 | 0.388 | 0.566 | 0.339 | 0.603 | 0.437 | 0.486 | 0.749 | 0.522
CC[C@@H]1C(=O)N(C)c2cnc(Nc3ccc(C(=O)N[C@H]4CC[C@H](N5CCN(CC6CC6)CC5)CC4)cc3OC)nc2N1C(C)C [Volasertib/BI6727] (max 1 µM) | 0.568 | 0.676 | 0.741 | 0.726 | 0.82 | 0.415 | 0.605 | 0.928 | 0.664 | 0.621 | 0.385
O=C(CCCCCCC(=O)Nc1ccccc1)NO [Vorinostat] (max 10 µM) | 0.189 | 0.241 | 0.162 | 0.24 | 0.269 | 0.153 | 0.349 | 0.217 | 0.166 | 0.426 | 0.146
C=CC(=O)Nc1ccc(C(=O)Nc2[nH]nc3c2CN(C(=O)N[C@H](CN(C)C)c2ccccc2)C3(C)C)cc1 [YKL-5-124] (max 10 µM) | 0.869 | 0.591 | 0.8 | 1.01 | 0.815 | 0.889 | 0.806 | 1.11 | 0.703 | 0.831 | 0.872
CN1CCN(C(=O)c2ccc3cc(CCNc4ncnc5ccc(C#N)cc45)ccc3c2)CC1 [senexin b] (max 10 µM) | 0.181 | 0.131 | 0.219 | 0.0969 | 0.139 | 0.177 | 0.249 | 0.28 | 0.175 | 0.435 | 0.322
